# From ChEMBL document CHEMBL3217445, “Optimising pharmacokinetics of glucokinase activators with matched triplicate design sets the discovery of AZD3651 and AZD9485” (Medchemcomm, 2013)
# Active and inactive are the calls of the source. No cut-off for these calls is given here.
# Assays:
# Hexokinase-4 = biological target: T1, Hexokinase-4 (Homo sapiens, UniProt P35557); assay: Activation of glucokinase (unknown origin)
# T1 sequence (P35557 whole entry): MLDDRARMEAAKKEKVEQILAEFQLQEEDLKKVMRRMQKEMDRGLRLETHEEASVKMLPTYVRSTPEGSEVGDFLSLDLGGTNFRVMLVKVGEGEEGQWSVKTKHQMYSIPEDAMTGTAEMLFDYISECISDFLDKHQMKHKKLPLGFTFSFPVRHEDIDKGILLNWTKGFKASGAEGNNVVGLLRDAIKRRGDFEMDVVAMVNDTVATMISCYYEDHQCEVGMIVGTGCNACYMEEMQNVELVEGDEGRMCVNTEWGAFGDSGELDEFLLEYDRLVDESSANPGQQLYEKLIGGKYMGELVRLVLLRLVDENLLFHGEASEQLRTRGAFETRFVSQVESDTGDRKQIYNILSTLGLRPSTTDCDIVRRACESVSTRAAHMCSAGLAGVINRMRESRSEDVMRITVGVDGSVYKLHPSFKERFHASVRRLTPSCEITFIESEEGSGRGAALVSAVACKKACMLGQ
# [1] = Octanol-buffer partition coefficient, log D of the compound at pH 7.4 after 30 mins by shake flask method; format: physicochemical
# [2] = Clearance in rat; format: ADME, organism-based; details: in vivo
# Rattus norvegicus [3] = organism: Rattus norvegicus; assay: Unbound clearance in rat; format: ADME, organism-based; details: in vivo
# [4] = Half life in rat plasma; format: ADME, cell-free
# [5] = biological target: Voltage-gated inwardly rectifying potassium channel KCNH2 (Homo sapiens, UniProt Q12809); assay: Inhibition of human ERG by electrophysiological analysis
# Sequence of Voltage-gated inwardly rectifying potassium channel KCNH2 (Q12809 whole entry): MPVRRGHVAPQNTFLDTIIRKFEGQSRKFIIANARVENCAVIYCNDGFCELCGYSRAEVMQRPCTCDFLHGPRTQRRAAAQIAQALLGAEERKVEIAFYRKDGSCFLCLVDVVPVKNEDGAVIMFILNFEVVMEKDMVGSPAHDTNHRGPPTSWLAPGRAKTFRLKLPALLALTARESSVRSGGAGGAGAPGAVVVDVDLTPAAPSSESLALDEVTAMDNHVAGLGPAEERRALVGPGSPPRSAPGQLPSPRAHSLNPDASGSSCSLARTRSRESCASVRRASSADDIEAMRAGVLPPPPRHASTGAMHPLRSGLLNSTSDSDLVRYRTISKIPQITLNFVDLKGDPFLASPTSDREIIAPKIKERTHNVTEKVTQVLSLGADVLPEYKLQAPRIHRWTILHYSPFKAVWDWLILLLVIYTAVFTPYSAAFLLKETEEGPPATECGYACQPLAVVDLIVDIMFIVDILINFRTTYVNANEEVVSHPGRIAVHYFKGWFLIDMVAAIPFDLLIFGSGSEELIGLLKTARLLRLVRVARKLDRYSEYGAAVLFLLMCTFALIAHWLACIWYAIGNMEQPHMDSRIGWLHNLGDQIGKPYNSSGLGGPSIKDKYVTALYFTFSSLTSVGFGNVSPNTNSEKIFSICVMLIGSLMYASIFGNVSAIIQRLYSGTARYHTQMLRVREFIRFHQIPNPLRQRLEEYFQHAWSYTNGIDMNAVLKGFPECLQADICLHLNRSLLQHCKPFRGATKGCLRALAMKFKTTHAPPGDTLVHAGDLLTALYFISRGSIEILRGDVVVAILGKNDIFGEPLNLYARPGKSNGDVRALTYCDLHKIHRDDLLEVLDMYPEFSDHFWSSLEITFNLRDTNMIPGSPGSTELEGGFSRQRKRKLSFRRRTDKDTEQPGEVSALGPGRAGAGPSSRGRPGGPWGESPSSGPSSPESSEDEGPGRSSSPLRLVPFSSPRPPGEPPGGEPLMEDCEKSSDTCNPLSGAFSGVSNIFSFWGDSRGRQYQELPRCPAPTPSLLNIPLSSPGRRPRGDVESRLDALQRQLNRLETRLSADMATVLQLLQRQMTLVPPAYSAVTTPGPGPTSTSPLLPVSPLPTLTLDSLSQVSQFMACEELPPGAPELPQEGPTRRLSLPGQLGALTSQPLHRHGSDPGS
# [6] = Half life at pH 6; format: physicochemical; details: buffer
# [7] = Aqueous solubility in PBS buffer at pH 7.4 after 24 hrs by LC-UV analysis; format: physicochemical
# [8] = Apparent permeability from apical to basolateral side in MDCK cells; format: ADME, cell-based, Canis lupus familiaris; details: dog
# [9] = Volume of distribution at steady state in rat; format: ADME, organism-based; details: in vivo, read-out: Vdss
# [10] = Oral bioavailability in rat; format: ADME, organism-based; details: in vivo
# [11] = Clearance in dog; format: ADME, organism-based, Canis lupus familiaris; details: in vivo
# Canis familiaris = organism: Canis familiaris; assay: Unbound clearance in dog; format: ADME, organism-based, Canis lupus familiaris; details: in vivo
# [12] = Volume of distribution at steady state in dog; format: ADME, organism-based, Canis lupus familiaris; details: in vivo, read-out: Vdss
# [13] = Oral bioavailability in dog; format: ADME, organism-based, Canis lupus familiaris; details: in vivo
# Rattus norvegicus [14] = assay: Glucose lowering activity in Zucker rat at 3 mg/kg, po after 24 hrs; format: functional, organism-based; set-up: dose 3 mg/kg
# Hepatocyte = assay: Intrinsic clearance in rat hepatocytes measured per […] cells; format: ADME, cell-based
Compound,EC50 (Hexokinase-4; read-out: pEC50 (converted)) [nM],logD at 0.5 h [1],clearance [2] [mL/min/kg],CL free (Rattus norvegicus [3]) [mL/min/kg],half-life [4] [min],IC50 [5] [nM],further results
N#Cc1ccc(NC(=O)[C@H](CN2CC(O)C2)Oc2ncnc3c2cnn3-c2c(Cl)cccc2Cl)nc1,251,2.6,64,240,–,–,–
Cc1cnc(NC(=O)[C@H](CO[C@H](C)CO)Oc2ncnc3c2cnn3-c2c(Cl)cccc2C#N)cn1,–,1.9,18,39,–,> 100000,EC50 (Hexokinase-4; read-out: EC50): 78 nM; solubility at 24 h [7]: > 50 µM; Papp A→B [8]: 7.8 ×10⁻⁶ cm/s; Vd [9]: 1.5 L/kg; bioavailability [10]: 100%; clearance [11]: 18 mL/min/kg; CL free (Canis familiaris): 49 mL/min/kg; Vd [12]: 0.9 L/kg; bioavailability [13]: 43%
C[C@@H](CO)OC[C@H](Oc1ncnc2c1cnn2-c1ncccc1Cl)C(=O)Nc1ccc(C#N)cn1,> 100000,1.5,–,–,115,–,–
O=C(Nc1ccc(F)cn1)[C@H](CN1CC(O)C1)Oc1ncnc2c1cnn2-c1ccccc1Cl,–,2.3,31,90,–,36000,EC50 (Hexokinase-4; read-out: EC50): 78 nM; solubility at 24 h [7]: > 750 µM; Papp A→B [8]: 9.8 ×10⁻⁶ cm/s; Vd [9]: 1.5 L/kg; bioavailability [10]: 75%; clearance [11]: 51 mL/min/kg; CL free (Canis familiaris): 170 mL/min/kg; Vd [12]: 1.5 L/kg; bioavailability [13]: 12%; Activity (Rattus norvegicus [14]): Active
CC(C)OC[C@H](Oc1ncnc2c1cnn2-c1ccccc1Cl)C(=O)Nc1ccc(Cl)cn1,–,> 4.3,33,1500,19,15800,–
N#Cc1ccc(NC(=O)[C@H](CN2CC(O)C2)Oc2ncnc3c2cnn3-c2ccccc2Cl)nc1,200,2.1,30,110,–,10000,–
Cc1cnc(NC(=O)[C@H](CN2CC(O)C2)Oc2ncnc3c2cnn3-c2c(Cl)cccc2Cl)cn1,–,2.3,225,74,–,62000,EC50 (Hexokinase-4; read-out: EC50): 96 nM; solubility at 24 h [7]: > 750 µM; Papp A→B [8]: 3.5 ×10⁻⁶ cm/s; Vd [9]: 1.2 L/kg; bioavailability [10]: 38%; clearance [11]: 18 mL/min/kg; CL free (Canis familiaris): 60 mL/min/kg; Vd [12]: 1.1 L/kg; bioavailability [13]: 87%
O=C(Nc1ccc(F)cn1)[C@H](CN1CC(O)C1)Oc1ncnc2c1cnn2-c1ncccc1Cl,316,1.3,21,31,62,> 100000,–
C[C@H](CO)OC[C@H](Oc1ncnc2c1cnn2-c1ncccc1Cl)C(=O)Nc1ccc(Cl)cn1,398,2.3,50,190,19,–,half-life [6]: > 23 days
C[C@H](CO)OC[C@H](Oc1ncnc2c1cnn2-c1ncccc1Cl)C(=O)Nc1ccc(C#N)cn1,–,1.5,14,29,106,–,half-life [6]: > 23 days
CC(C)OC[C@H](Oc1ncnc2c1cnn2-c1ncccc1Cl)C(=O)Nc1ccc(C#N)cn1,–,–,21,81,22,–,half-life [6]: > 23 days
O=C(Nc1ccccn1)[C@H](CN1CC(O)C1)Oc1ncnc2c1cnn2-c1ccccc1Cl,200,2,170,420,–,> 100000,–
CC(C)OC[C@H](Oc1ncnc2c1cnn2-c1ncccc1Cl)C(=O)Nc1ccc(Cl)cn1,–,–,11,120,14,–,half-life [6]: > 23 days
C[C@@H](CO)OC[C@H](Oc1ncnc2c1cnn2-c1ncccc1Cl)C(=O)Nc1ccc(Cl)cn1,3160,2.4,–,–,12,–,–
N#Cc1ccc(NC(=O)[C@H](CN2CC(O)C2)Oc2ncnc3c2cnn3-c2c(Cl)cccc2C#N)nc1,501,1.9,–,–,–,7940,–
Cc1ccc(NC(=O)[C@H](COC(C)C)Oc2ncnc3c2cnn3-c2ncccc2Cl)nc1,–,–,–,390,17,–,CLint (Hepatocyte): 66 µL/min/1e6 cells
COC[C@H](Oc1ncnc2c1cnn2-c1ncccc1Cl)C(=O)Nc1ccc(C)cn1,–,–,–,–,> 300,–,CLint (Hepatocyte): < 2 µL/min/1e6 cells
CCOC[C@H](Oc1ncnc2c1cnn2-c1ncccc1Cl)C(=O)Nc1ccc(C)cn1,–,–,–,340,37,–,CLint (Hepatocyte): 12 µL/min/1e6 cells
Cc1ccc(NC(=O)[C@H](COC2CCC2)Oc2ncnc3c2cnn3-c2ncccc2Cl)nc1,–,–,–,1500,10,–,CLint (Hepatocyte): 130 µL/min/1e6 cells
O=C(Nc1ccc(Cl)cn1)[C@H](CN1CC(O)C1)Oc1ncnc2c1cnn2-c1ccccc1Cl,63.1,3.1,40,310,24,10000,–
O=C(Nc1ccc(Cl)cn1)[C@H](CN1CC(O)C1)Oc1ncnc2c1cnn2-c1ncccc1Cl,316,2,38,140,45,50100,–

# Now from value to compound, other results behind:
EC50 (Hexokinase-4; read-out: pEC50 (converted)) [nM],logD at 0.5 h [1],clearance [2] [mL/min/kg],CL free (Rattus norvegicus [3]) [mL/min/kg],half-life [4] [min],Compound,IC50 [5] [nM],further results
200,1.8,11,–,> 300,Cc1ccc(NC(=O)[C@H](CCO)Oc2ncnc3c2cnn3-c2ncccc2Cl)nc1,–,–
200,2.5,15,110,–,O=C(Nc1ccc(F)cn1)[C@H](COCCO)Oc1ncnc2c1cnn2-c1c(F)cccc1Cl,31600,–
–,–,130,600,7,CC(C)OC[C@H](Oc1ncnc2c1cnn2-c1ncccc1Cl)C(=O)Nc1ccc(F)cn1,–,half-life [6]: > 23 days
50.1,2.3,38,190,–,O=C(Nc1ccc(F)cn1)[C@H](CN1CC(O)C1)Oc1ncnc2c1cnn2-c1c(F)cccc1Cl,25100,–
126,2.7,15,120,–,O=C(Nc1ccc(F)cn1)[C@H](COCCO)Oc1ncnc2c1cnn2-c1c(Cl)cccc1Cl,20000,–
200,2,32,260,–,N#Cc1cccc(Cl)c1-n1ncc2c(O[C@@H](CN3CC(O)C3)C(=O)Nc3ccc(F)cn3)ncnc21,–,–
–,2.7,42,320,–,O=C(Nc1ccc(F)cn1)[C@H](CN1CC(O)C1)Oc1ncnc2c1cnn2-c1c(Cl)cccc1Cl,–,EC50 (Hexokinase-4; read-out: EC50): 49 nM; solubility at 24 h [7]: 80 µM; Papp A→B [8]: 7.3 ×10⁻⁶ cm/s; Vd [9]: 1.7 L/kg; bioavailability [10]: 28%; clearance [11]: 30 mL/min/kg; CL free (Canis familiaris): 210 mL/min/kg; Vd [12]: 1.1 L/kg; bioavailability [13]: 32%; Activity (Rattus norvegicus [14]): Active
794,1.7,43,98,16,C[C@H](CO)OC[C@H](Oc1ncnc2c1cnn2-c1ncccc1Cl)C(=O)Nc1ccc(F)cn1,> 100000,half-life [6]: > 23 days
200,3.1,11,120,86,O=C(Nc1ccc(Cl)cn1)[C@H](COCCO)Oc1ncnc2c1cnn2-c1ccccc1Cl,–,–
1580,–,13,28,115,N#Cc1ccc(NC(=O)[C@H](COCCO)Oc2ncnc3c2cnn3-c2ncccc2Cl)nc1,–,–
–,2.3,81,250,–,O=C(Nc1ccccn1)[C@H](CN1CC(O)C1)Oc1ncnc2c1cnn2-c1c(F)cccc1Cl,–,–
2510,1.7,38,76,1,C[C@@H](CO)OC[C@H](Oc1ncnc2c1cnn2-c1ncccc1Cl)C(=O)Nc1ccc(F)cn1,> 100000,–
501,2.1,15,70,31,O=C(Nc1ccc(Cl)cn1)[C@H](COCCO)Oc1ncnc2c1cnn2-c1ncccc1Cl,50100,–
631,2.4,45,220,–,O=C(Nc1ccc(F)cn1)[C@H](COCCO)Oc1ncnc2c1cnn2-c1ccccc1Cl,39800,–
501,2,19,140,–,N#Cc1cccc(Cl)c1-n1ncc2c(O[C@@H](COCCO)C(=O)Nc3ccc(F)cn3)ncnc21,63100,–
